Molecules are shown by their SMILES.

In one assay the target is T1, HMGCR (TM1-8)-GFP (Cricetulus griseus, UniProt P00347).
T1 sequence (P00347 1-346): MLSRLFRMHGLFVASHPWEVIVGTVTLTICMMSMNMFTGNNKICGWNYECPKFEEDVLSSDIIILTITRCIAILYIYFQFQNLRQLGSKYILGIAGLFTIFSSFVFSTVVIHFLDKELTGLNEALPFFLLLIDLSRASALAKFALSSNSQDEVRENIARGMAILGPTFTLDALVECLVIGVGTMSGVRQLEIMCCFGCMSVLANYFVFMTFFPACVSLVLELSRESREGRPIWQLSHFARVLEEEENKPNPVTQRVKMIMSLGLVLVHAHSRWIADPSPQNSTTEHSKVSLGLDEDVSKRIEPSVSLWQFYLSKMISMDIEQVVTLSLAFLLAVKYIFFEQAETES
Nature of the assay: HMGCR (TM1-8)-GFP fluorescent assay (high-content imaging) in CHG cells. As to conditions: for Mean (HMGCR (TM1-8)-GFP signal relative to 0 μM = 100): Figure 4 source data.

A further assay has as its target T2, K89R/K248R HMGCR (Cricetulus griseus, UniProt P00347, K248R/K89R).
T2 sequence (P00347 1-887 K89R/K248R): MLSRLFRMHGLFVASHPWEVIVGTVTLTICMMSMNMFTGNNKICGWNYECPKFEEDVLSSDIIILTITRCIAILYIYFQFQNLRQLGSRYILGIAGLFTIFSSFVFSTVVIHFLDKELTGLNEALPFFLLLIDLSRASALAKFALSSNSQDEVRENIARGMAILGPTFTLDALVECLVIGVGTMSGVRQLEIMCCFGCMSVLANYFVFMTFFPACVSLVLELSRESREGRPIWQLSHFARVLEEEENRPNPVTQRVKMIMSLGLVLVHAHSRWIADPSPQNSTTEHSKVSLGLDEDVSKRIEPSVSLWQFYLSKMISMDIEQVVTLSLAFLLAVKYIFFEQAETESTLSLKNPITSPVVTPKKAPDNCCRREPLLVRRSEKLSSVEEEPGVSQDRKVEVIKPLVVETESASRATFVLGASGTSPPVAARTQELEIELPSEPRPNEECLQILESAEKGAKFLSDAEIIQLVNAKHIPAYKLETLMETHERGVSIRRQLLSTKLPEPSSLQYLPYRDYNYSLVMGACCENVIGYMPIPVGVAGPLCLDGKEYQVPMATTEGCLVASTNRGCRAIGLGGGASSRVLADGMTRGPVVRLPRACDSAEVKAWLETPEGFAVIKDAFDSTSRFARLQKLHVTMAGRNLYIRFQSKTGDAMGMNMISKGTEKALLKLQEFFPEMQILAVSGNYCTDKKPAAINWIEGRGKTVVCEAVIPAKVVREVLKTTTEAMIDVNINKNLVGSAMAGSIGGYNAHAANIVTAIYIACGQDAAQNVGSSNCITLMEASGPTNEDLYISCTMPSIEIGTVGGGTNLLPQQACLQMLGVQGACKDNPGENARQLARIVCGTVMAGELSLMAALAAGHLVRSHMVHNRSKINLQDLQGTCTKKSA
Kind of assay: Immunoblotting of overexpressed K89R/K248R HMGCR in Huh7 cells. It counts as cell-based. Also on record: expressed in transfected cells; host or cells: Huh7 (A8). Particulars: lovastatin. How it is done: Cells were harvested and homogenized in the RIPA buffer (50 mM Tris-HCl, pH 8.0, 150 mM NaCl, 2 mM MgCl2, 1.5% NP-40, 0.1% SDS, and 0.5% sodium deoxycholate) supplemented with protease cocktail inhibitor, 10 μM MG-132, 10 μg ml^−1 leupeptin and 1 mM phenylmethylsulfonyl fluoride. The protein concentrations of lysates were determined using BCA method (Beyotime). Samples were mixed with the membrane protein solubilization buffer (62.5 mM Tris-HCl, pH 6.8, 15% SDS, 8 M urea, 10% glycerol, and 100 mM DTT) plus the 4× loading buffer (150 mM Tris-HCl, pH 6.8, 12% SDS, 30% glycerol, 6% 2-mercaptoethanol, and 0.02% bromophenol blue) and incubated for 30 min at 37 °C. Proteins were resolved by SDS-PAGE and transferred to nitrocellulose membranes (GE Healthcare). Immnoblots were blocked with 5% non-fat milk in TBS containing 0.075% Tween-20 (TBST) and probed with indicated antibodies overnight at 4 °C. After washing in TBST for five times, blots were incubated with HRP-conjugated secondary antibodies for 2 h at room temperature. Immunoreactivity was developed with Clarity Western ECL chemiluminescent substrates (170–5061, Bio-Rad). Western blot images were captured by Amersham Imager 600 (GE Healthcare), and integrated optical intensities of each band were quantified by Image-Pro Plus 6 software (Media Cybernetics). […]
RT-qPCR. Quantifications of the relative mRNA levels of indicated SREBP target […]

Protocol for HMGCR (TM1-8)-GFP: We thus generated a cell line stably expressing the transmembrane domain of HMGCR fused with green fluorescent protein (GFP) as a reporter (HMGCR (TM1-8)-GFP) (Fig. 2a).
CHO-7 cells were transfected with pCMV-HMGCR (TM1-8)-GFP using FuGENE HD. Twenty-four hours, cells were switched to medium B supplemented with 5% FBS and selected in the presence of 1 mg ml^−1 G418 for 2 weeks. Surviving colonies were isolated and confirmed for GFP expression by immunoblotting and immunofluorescence. The resulting CHO-7/HMGCR (TM1-8)-GFP stable cell line (CHG) was maintained in medium B supplemented with 5% FBS and 200 μg ml^−1 G418.
CHG cells were treated as described in figure legends. Briefly, cells were seeded at day 0 in 96-well black plate (3904, Corning) at a density of 1.5 × 10^4 cells per well, in medium B containing with 5% LPDS. Day 1, corresponding compounds were added as figure legends described in medium B with 5% LPDS, 1 μM lovastatin, 50 μM sodium mevalonate for 16 h. Then cells were fixed with 4% paraformaldehyde for 20 min, washed with PBS for three times, and stained with 2 μg ml^−1 Hoechst 33342.
The fluorescent images (GFP and Hoechst channel) were captured using an Operatta High-Content Imaging System (PerkinElmer) with a ×20 objective. The cytoplasmic GFP fluorescence was measured with the Harmony Software (PerkinElmer). Five random selected filed per well were captured, and about 3000 cells were used to determine the mean cytoplasmic GFP fluorescent intensity per cell after subtracting background GFP intensity. The average GFP intensity of DMSO-treated cells was defined as 100.

On to `C=CCC(O)(CC=C)CCCC(C)C1CCC2C3C(O)C=C4C(C)(C)C(O)CCC4(C)C3CCC12C` (stereo not shown) [Cmpd 81], for which the “Mean (HMGCR (TM1-8)-GFP signal relative to 0 μM = 100)” value at HMGCR (TM1-8)-GFP (compound 0.156 μM) is given as 80.6979; at HMGCR (TM1-8)-GFP (compound 0.313 μM), 58.3802; at HMGCR (TM1-8)-GFP (compound 0.625 μM) it was 35.2515; at HMGCR (TM1-8)-GFP (compound 1.25 μM) it was 17.0524; at HMGCR (TM1-8)-GFP (compound 2.5 μM), 14.0516; on HMGCR (TM1-8)-GFP (compound 5 μM), 2.6212. For the same molecule, at HMGCR (TM1-8)-GFP (compound 10 μM), the “Mean (HMGCR (TM1-8)-GFP signal relative to 0 μM = 100)” value is 2.9162. In addition, on HMGCR (TM1-8)-GFP (more potent than 24,25-DHL), the “potency (EC50) relative to 24,25-DHL” value is given as roughly 4 fold. Further, the “potency (EC50) relative to cholesterol” value at HMGCR (TM1-8)-GFP (more potent than cholesterol) is given as “approximately 74 fold”.

In the case of `CC[C@H](C)C(=O)O[C@H]1C[C@@H](C)C=C2C=C[C@H](C)[C@H](CC[C@@H]3C[C@@H](O)CC(=O)O3)[C@H]21` [Lovastatin, lovastatin], at K89R/K248R HMGCR, the “effect on ubiquitination-resistant K89R/K248R HMGCR protein level” value was “did not induce the protein level further increase”.

Source of the values: paper PMC6277434, “Discovery of a potent HMG-CoA reductase degrader that eliminates statin-induced reductase accumulation and lowers cholesterol” (Nature Communications, 2018).
